Reference: patent US11053204B2, “Pyrimidinyloxy benzene derivatives as herbicides” (FMC Corporation, priority 2015, dated 2021)

Key:
Format in all cases: in vivo
kochia (Kochia scoparia) = assay: Test C preemergence, plant response rating
[1] = tested on: galium (catchweed bedstraw, Galium aparine); assay: Test C preemergence, plant response rating
[2] = tested on: johnsongrass (Sorghum halepense); assay: Test C preemergence, plant response rating
[3] = tested on: wild mustard (Sinapis arvensis); assay: Test C postemergence, plant response rating; settings: for Mustard, Wild plant response rating: scale 0 to 100 (0 no effect, 100 complete control)
Procedure, shortened: (§1)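 After sowing in loam–sand blend or silt loam, pots were sprayed preemergence; separately grown 1- to 4-leaf plants were sprayed postemergence. Following 13 to 15 d under greenhouse conditions, injury was rated visually on a 0 to 100 scale.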

[4] = tested on: field violet (Viola arvensis); assay: Test C postemergence, plant response rating; settings: for Field Violet plant response rating: scale 0 to 100 (0 no effect, 100 complete control)
Procedure, shortened: as §1

[5] = tested on: geranium, cutleaf (cutleaf geranium, Geranium dissectum); assay: Test C postemergence, plant response rating; settings: for Geranium, Cutleaf plant response rating: scale 0 to 100 (0 no effect, 100 complete control)
Procedure, shortened: as §1

[6] = tested on: field poppy (Papaver rhoeas); assay: Test C postemergence, plant response rating; settings: for Field Poppy plant response rating: scale 0 to 100 (0 no effect, 100 complete control)
Procedure, shortened: as §1

[7] = tested on: nightshade (eastern black nightshade, Solanum ptycanthum); assay: Test C postemergence, plant response rating; settings: for Nightshade plant response rating: scale 0 to 100 (0 no effect, 100 complete control)
Procedure, shortened: as §1

[8] = tested on: Canada thistle (Cirsium arvense); assay: Test C postemergence, plant response rating; settings: for Canada Thistle plant response rating: scale 0 to 100 (0 no effect, 100 complete control)
Procedure, shortened: as §1

[9] = tested on: wild poinsettia (Euphorbia heterophylla); assay: Test C postemergence, plant response rating; settings: for Poinsettia, Wild plant response rating: scale 0 to 100 (0 no effect, 100 complete control)
Procedure, shortened: as §1

[10] = tested on: windgrass (Apera spica-venti); assay: Test C postemergence, plant response rating
Procedure, shortened: as §1

[11] = tested on: pigweed, palmer (palmer pigweed, Amaranthus palmeri); assay: Test C postemergence, plant response rating; settings: for Pigweed, Palmer plant response rating: scale 0 to 100 (0 no effect, 100 complete control)
Procedure, shortened: as §1

[12] = tested on: speedwell (bird's-eye speedwell, Veronica persica); assay: Test C postemergence, plant response rating; settings: for Speedwell plant response rating: scale 0 to 100 (0 no effect, 100 complete control)
Procedure, shortened: as §1

[13] = tested on: surinam grass (Brachiaria decumbens); assay: Test C postemergence, plant response rating
Procedure, shortened: as §1

[14] = tested on: johnsongrass (Sorghum halepense); assay: Test C postemergence, plant response rating; settings: for Johnsongrass plant response rating: scale 0 to 100 (0 no effect, 100 complete control)
Procedure, shortened: as §1

[15] = tested on: buckwheat, wild (wild buckwheat, Polygonum convolvulus); assay: Test C postemergence, plant response rating; settings: for Buckwheat, Wild plant response rating: scale 0 to 100 (0 no effect, 100 complete control)
Procedure, shortened: as §1

[16] = 125 g ai/ha, scale 0 to 100 (0 no effect, 100 complete control)

CCCC(=O)c1c(Oc2ncc(Cl)cn2)cccc1C(F)(F)F [Compound 136]
Plant response rating, Kochia (kochia (Kochia scoparia); 31 g ai/ha, scale 0 to 100): 80
Plant response rating, Kochia (kochia (Kochia scoparia); 62 g ai/ha, scale 0 to 100): 85
Plant response rating, Kochia (kochia (Kochia scoparia); 125 g ai/ha, scale of 0 to 100): 98
Plant response rating, Galium ([1]; 31 g ai/ha, scale 0 to 100): 0
Plant response rating, Galium ([1]; 62 g ai/ha, scale 0 to 100): 50
Plant response rating, Galium ([1]; 125 g ai/ha, scale of 0 to 100): 90
Plant response rating, Johnsongrass ([2]; 31 g ai/ha, scale 0 to 100): 25
Plant response rating, Johnsongrass ([2]; 62 g ai/ha, scale 0 to 100): 35
Plant response rating, Johnsongrass ([2]; 125 g ai/ha, scale of 0 to 100): 70
Plant response rating, Mustard, Wild ([3]; 16 g ai/ha, scale of 0 to 100): 85
Plant response rating, Mustard, Wild ([3]; 31 g ai/ha, scale 0 to 100): 95
Mustard, Wild plant response rating ([3]; 62 g ai/ha): 85
Mustard, Wild plant response rating ([3]; 125 g ai/ha): 100
Plant response rating, Field Violet ([4]; 16 g ai/ha, scale of 0 to 100): 85
Plant response rating, Field Violet ([4]; 31 g ai/ha, scale 0 to 100): 90
Field Violet plant response rating ([4]; 62 g ai/ha): 95
Field Violet plant response rating ([4]; 125 g ai/ha): 100
Plant response rating, Geranium, Cutleaf ([5]; 16 g ai/ha, scale of 0 to 100): 15
Plant response rating, Geranium, Cutleaf ([5]; 31 g ai/ha, scale 0 to 100): 25
Geranium, Cutleaf plant response rating ([5]; 62 g ai/ha): 50
Geranium, Cutleaf plant response rating ([5]; 125 g ai/ha): 45
Plant response rating, Field Poppy ([6]; 16 g ai/ha, scale of 0 to 100): 65
Plant response rating, Field Poppy ([6]; 31 g ai/ha, scale 0 to 100): 85
Field Poppy plant response rating ([6]; 62 g ai/ha): 80
Field Poppy plant response rating ([6]; 125 g ai/ha): 90
Plant response rating, Nightshade ([7]; 16 g ai/ha, scale of 0 to 100): 70
Plant response rating, Nightshade ([7]; 31 g ai/ha, scale 0 to 100): 75
Nightshade plant response rating ([7]; 62 g ai/ha): 70
Nightshade plant response rating ([7]; 125 g ai/ha): 80
Plant response rating, Canada Thistle ([8]; 16 g ai/ha, scale of 0 to 100): 65
Plant response rating, Canada Thistle ([8]; 31 g ai/ha, scale 0 to 100): 75
Canada Thistle plant response rating ([8]; 62 g ai/ha): 85
Canada Thistle plant response rating ([8]; 125 g ai/ha): 85
Plant response rating, Poinsettia, Wild ([9]; 16 g ai/ha, scale of 0 to 100): 40
Plant response rating, Poinsettia, Wild ([9]; 31 g ai/ha, scale 0 to 100): 65
Poinsettia, Wild plant response rating ([9]; 62 g ai/ha): 70
Poinsettia, Wild plant response rating ([9]; 125 g ai/ha): 75
Plant response rating, Windgrass ([10]; 16 g ai/ha, scale of 0 to 100): 5
Plant response rating, Windgrass ([10]; 31 g ai/ha, scale 0 to 100): 10
Windgrass plant response rating [10, 16]: 30
Plant response rating, Pigweed, Palmer ([11]; 16 g ai/ha, scale of 0 to 100): 50
Plant response rating, Pigweed, Palmer ([11]; 31 g ai/ha, scale 0 to 100): 55
Pigweed, Palmer plant response rating ([11]; 62 g ai/ha): 70
Pigweed, Palmer plant response rating ([11]; 125 g ai/ha): 70
Plant response rating, Speedwell ([12]; 16 g ai/ha, scale of 0 to 100): 75
Plant response rating, Speedwell ([12]; 31 g ai/ha, scale 0 to 100): 80
Speedwell plant response rating ([12]; 62 g ai/ha): 80
Speedwell plant response rating ([12]; 125 g ai/ha): 85
Plant response rating, Surinam Grass ([13]; 16 g ai/ha, scale of 0 to 100): 5
Plant response rating, Surinam Grass ([13]; 31 g ai/ha, scale 0 to 100): 5
Surinam Grass plant response rating [13, 16]: 10
Plant response rating, Johnsongrass ([14]; 16 g ai/ha, scale of 0 to 100): 5
Plant response rating, Johnsongrass ([14]; 31 g ai/ha, scale 0 to 100): 5
Johnsongrass plant response rating ([14]; 62 g ai/ha): 10
Johnsongrass plant response rating ([14]; 125 g ai/ha): 15
Plant response rating, Buckwheat, Wild ([15]; 16 g ai/ha, scale of 0 to 100): 50
Plant response rating, Buckwheat, Wild ([15]; 31 g ai/ha, scale 0 to 100): 60
Buckwheat, Wild plant response rating ([15]; 62 g ai/ha): 90
Buckwheat, Wild plant response rating ([15]; 125 g ai/ha): 80
